Measured values taken from patent publication US8034602B2 (priority 2006, dated 2011).

Tested on: mutant strain CJR0500
Test: Flask fermentation with tryptophan added to fermentation medium
Type: cell-based, Corynebacterium glutamicum
Settings: 50 mg/L tryptophan in fermentation medium, 30° C., 64 hrs, shaking

N[C@@H](Cc1c[nH]c2ccccc12)C(=O)O [Tryptophan, L-tryptophan]
Effect of tryptophan addition on growth: stimulate the growth
